The text below walks through data of patent US7951827B2, “Synthesis and antiprotozoal activity of dicationic 3,5-diphenylisoxazoles” (The University of North Carolina at Chapel Hill, priority 2005, dated 2011).

Read-outs that look alike come from different tables or passages of the source.

For series [1], the system named is VERO cells. Nature of the series: Cytotoxicity to VERO cells. Type of series: cell-based, African green monkey (Cercopithecus Aethiops). The settings on record: for IC50: Chlorocebus sabaeus, Vero, read-out: IC50 value against VERO cells. The method, then:
(§1) In vitro antiprotozoal activities, see Ismail, M. A., et al., J. Med. Chem. 46, 4761-4769 (2003), and cytotoxicity were measured following established protocols, see Balz, T., et al., EMBO J., 4, 1273-1277 (1985); Räz. B., et al., Acta Trop., 68:139-147 (1997); and Sperandeo, N. R. et al., Chem. Biochem., 4, 69-73 (2003). […] Other positive controls employed were melarsoprol (against T. brucei), chloroquine, and artemisinin (against P. falciparum), and podophyllotoxin (against VERO cells).

Series [2] is described as follows: Cytotoxicity to VERO cells. The note with it: African green monkey (Cercopithecus aethiops), IC50 (μM) Cytotoxicity VERO cells. Format: cell-based, African green monkey (Cercopithecus Aethiops). The method, then:
as §1

For series [3], the system named is Trypanosoma brucei brucei. The series can be described thus: In vitro antiprotozoal activity against Trypanosoma brucei brucei. Type of series: cell-based. The settings on record: Trypanosoma brucei. The method, then: as §1
The subject of series [4] is Plasmodium falciparum. The series can be described thus: In vitro antiprotozoal activity against Plasmodium falciparum. Type of series: cell-based. The note with it: Plasmodium falciparum. The method, then:
as §1

Setting [5] is: Table 1, read-out: IC50 (μM) Trypanosoma brucei brucei.
[6] abbreviates: Table 1, read-out: IC50 (μM) Plasmodium falciparum.

`CC(C)NC(=N)c1cccc(-c2cc(-c3cccc(C(=N)NC(C)C)c3)on2)c1.Cl.Cl` [Compound 33, 3,5-Bis[3-(N-isopropyl)amidinophenyl]isoxazole dihydrochloride]: the melting point (in general, the temperature, or range, at which the solid turns liquid) was 260 °C (dec.). Besides, in series [1], the “toxicity (VERO cells) in words” value is on record as “very nontoxic” and the IC50 (usually the concentration at which inhibition is half-maximal) was over 100 µM. In series [2], this compound had an IC50 of 180 µM. Moreover, the half-inhibitory concentration (IC50) in series [3] (setting [5]) is 4.98 µM. In series [4] (setting [6]), the concentration for half-maximal inhibition (IC50) turned out to be 0.0431 µM.

Consider `COc1cc(C(=N)N)ccc1-c1cc(-c2cccc(C(=N)N)c2)on1.Cl.Cl` [Compound 29, 3-(4-Amidino-2-methoxyphenyl)-5-(3-amidinophenyl)isoxazole dihydrochloride], for which the melting point is 288 °C (dec.). The concentration for half-maximal inhibition (IC50) in series [1] is over 100 µM. The IC50 in series [2] came to 136 µM. The IC50 in series [3] (setting [5]) is 0.0059 µM. In series [3] (read-out: IC50 values against T. brucei brucei), the IC50 fell in the range of 0.0035 to 0.009 µM. For the same compound, the IC50 in series [4] (setting [6]) is 0.0089 µM. For the same compound, the IC50 in series [4] (read-out: antiplasmodial IC50 values (P. falciparum)) lay within 0.008 to 0.03 µM.
